Measured values from ChEMBL document CHEMBL1909294, “Translating clinical findings into knowledge in drug safety evaluation--drug induced liver injury prediction system (DILIps)” (PLoS Comput Biol, 2011).

Tests used:
Hepatotoxicity [1] = system: Hepatotoxicity;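 for HepSE Combined Scores: combined hepatic side effect score as listed in the training data of the Drug Induced Liver Injury Prediction System (DILIps)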;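 for HepSE bilirubinemia: bilirubinemia hepatic side effect score drawn from the DILIps training data, a prediction system for drug-induced liver injury; call rule not given here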;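 for HepSE cholecystitis: Cholecystitis-related hepatic side effect score drawn from the DILIps (drug-induced liver injury prediction) training data set; call rule not given here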;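 for HepSE cirrhosis: cirrhosis hepatic side effect score taken from the DILIps (drug-induced liver injury prediction) training set; call rule not given here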; for HepSE hepatic failure: call rule not given here;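 for HepSE hepatomegaly: hepatic side effect score for hepatomegaly, taken from the training set of the DILIps drug-induced liver injury prediction system; call rule not given here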;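 for HepSE liver fatty: hepatic side effect score for fatty liver, taken from the DILIps training set for predicting drug-induced liver injury; call rule not given here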
Hepatotoxicity [2] = system: Hepatotoxicity; remark: listed apart in the source;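 for HepSE Combined Scores: combined hepatic side effect score as listed in the training data of the Drug Induced Liver Injury Prediction System (DILIps)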;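 for HepSE bilirubinemia: bilirubinemia hepatic side effect score drawn from the DILIps training data, a prediction system for drug-induced liver injury; call rule not given here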;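 for HepSE cholecystitis: Cholecystitis-related hepatic side effect score drawn from the DILIps (drug-induced liver injury prediction) training data set; call rule not given here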;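 for HepSE cirrhosis: cirrhosis hepatic side effect score taken from the DILIps (drug-induced liver injury prediction) training set; call rule not given here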; for HepSE hepatic failure: call rule not given here;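 for HepSE hepatomegaly: hepatic side effect score for hepatomegaly, taken from the training set of the DILIps drug-induced liver injury prediction system; call rule not given here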;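 for HepSE liver fatty: hepatic side effect score for fatty liver, taken from the DILIps training set for predicting drug-induced liver injury; call rule not given here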
Hepatotoxicity [3] = system: Hepatotoxicity; remark: listed apart in the source;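 for HepSE Combined Scores: combined hepatic side effect score as listed in the training data of the Drug Induced Liver Injury Prediction System (DILIps)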;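 for HepSE bilirubinemia: bilirubinemia hepatic side effect score drawn from the DILIps training data, a prediction system for drug-induced liver injury; call rule not given here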;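 for HepSE cirrhosis: cirrhosis hepatic side effect score taken from the DILIps (drug-induced liver injury prediction) training set; call rule not given here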; for HepSE hepatic failure: call rule not given here;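 for HepSE hepatomegaly: hepatic side effect score for hepatomegaly, taken from the training set of the DILIps drug-induced liver injury prediction system; call rule not given here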;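 for HepSE liver fatty: hepatic side effect score for fatty liver, taken from the DILIps training set for predicting drug-induced liver injury; call rule not given here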
Hepatotoxicity [4] = system: Hepatotoxicity; remark: listed apart in the source;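 for HepSE Combined Scores: combined hepatic side effect score as listed in the training data of the Drug Induced Liver Injury Prediction System (DILIps)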;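 for HepSE bilirubinemia: bilirubinemia hepatic side effect score drawn from the DILIps training data, a prediction system for drug-induced liver injury; call rule not given here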;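 for HepSE cirrhosis: cirrhosis hepatic side effect score taken from the DILIps (drug-induced liver injury prediction) training set; call rule not given here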; for HepSE hepatic failure: call rule not given here;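 for HepSE hepatomegaly: hepatic side effect score for hepatomegaly, taken from the training set of the DILIps drug-induced liver injury prediction system; call rule not given here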;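 for HepSE liver fatty: hepatic side effect score for fatty liver, taken from the DILIps training set for predicting drug-induced liver injury; call rule not given here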
Hepatotoxicity [5] = system: Hepatotoxicity; remark: listed apart in the source; for HepSE hepatic failure: call rule not given here
Hepatotoxicity [6] = system: Hepatotoxicity; remark: listed apart in the source; for HepSE hepatic failure: call rule not given here
Hepatotoxicity [7] = system: Hepatotoxicity; remark: listed apart in the source
Hepatotoxicity [8] = system: Hepatotoxicity; remark: listed apart in the source
Hepatotoxicity [9] = system: Hepatotoxicity; remark: listed apart in the source
Hepatotoxicity [10] = system: Hepatotoxicity; remark: listed apart in the source
Hepatotoxicity [11] = system: Hepatotoxicity; remark: listed apart in the source
Hepatotoxicity [12] = system: Hepatotoxicity; remark: listed apart in the source
Hepatotoxicity [13] = system: Hepatotoxicity; remark: listed apart in the source
Hepatotoxicity [14] = system: Hepatotoxicity; remark: listed apart in the source

Compound | HepSE_hepatomegaly (Hepatotoxicity [1]) | HepSE_bilirubinemia (Hepatotoxicity [2]) | HepSE_hepatic failure (Hepatotoxicity [3]) | HepSE_liver fatty (Hepatotoxicity [4]) | HepSE_hepatitis (Hepatotoxicity [5]) | HepSE_Combined Scores (Hepatotoxicity [6]) | HepSE_cirrhosis (Hepatotoxicity [7]) | HepSE_hepatic necrosis (Hepatotoxicity [8]) | HepSE_cholecystitis (Hepatotoxicity [9]) | HepSE_elevated liver function tests (Hepatotoxicity [10]) | HepSE_liver function tests abnormal (Hepatotoxicity [11]) | HepSE_jaundice (Hepatotoxicity [12]) | HepSE_cholelithiasis (Hepatotoxicity [13]) | HepSE_liver disease (Hepatotoxicity [14]) | other results
CCOC(=O)C1=C[C@@H](OC(CC)CC)[C@H](NC(C)=O)[C@@H](N)C1 [OSELTAMIVIR] | 0 | 0 | 1 | 0 | 1 | 3 | 0 | 0 | 0 | 0 | 1 | 0 | 0 | 0 | 
COc1cc(N)c(Cl)cc1C(=O)NC1CCN(CCCOc2ccc(F)cc2)CC1OC (configuration not stated) [CISAPRIDE] | 0 | 0 | 0 | 0 | 1 | 1 | 0 | 0 | 0 | 0 | 0 | 0 | 0 | 0 | 
C[n+]1ccccc1/C=N/O [PRALIDOXIME] | 0 | 0 | 0 | 0 | 0 | 0 | 0 | 0 | 0 | 0 | 0 | 0 | 0 | 0 | 
OC[C@H]1O[C@@H](O)[C@@H](F)[C@@H](O)[C@@H]1O | 0 | 0 | 0 | 0 | 0 | 0 | 0 | 0 | 0 | 0 | 0 | 0 | 0 | 0 | 
C=CCN1CC[C@]23c4c5ccc(O)c4O[C@H]2C(=O)CC[C@@]3(O)[C@H]1C5 [NALOXONE] | 0 | 0 | 0 | 0 | 0 | 0 | 0 | 0 | 0 | 0 | 0 | 0 | 0 | 0 | 
CCN[C@H]1C[C@H](C)S(=O)(=O)c2sc(S(N)(=O)=O)cc21 [DORZOLAMIDE] | 1 | 0 | 0 | 0 | 0 | 1 | 0 | 0 | 0 | 0 | 0 | 0 | 0 | 0 | 
OCCN1C[C@H](O)[C@@H](O)[C@H](O)[C@H]1CO [MIGLITOL] | 0 | 0 | 0 | 0 | 0 | 0 | 0 | 0 | 0 | 0 | 0 | 0 | 0 | 0 | 
CC(C[N+](C)(C)C)OC(N)=O (configuration not stated) [BETHANECHOL] |  |  |  |  |  |  |  |  |  |  |  |  |  |  | HepSE_hepatomegaly (Hepatotoxicity [1]; Liver): 0; HepSE_bilirubinemia (Hepatotoxicity [2]; Liver): 0; HepSE_hepatic failure (Hepatotoxicity [3]; Liver): 0; HepSE_liver fatty (Hepatotoxicity [4]; Liver): 0; HepSE_hepatitis (Hepatotoxicity [5]; Liver): 0; HepSE_Combined Scores (Hepatotoxicity [6]; Liver): 0; HepSE_cirrhosis (Hepatotoxicity [7]; Liver): 0; HepSE_hepatic necrosis (Hepatotoxicity [8]; Liver): 0; HepSE_cholecystitis (Hepatotoxicity [9]; Liver): 0; HepSE_elevated liver function tests (Hepatotoxicity [10]; Liver): 0; HepSE_liver function tests abnormal (Hepatotoxicity [11]; Liver): 0; HepSE_jaundice (Hepatotoxicity [12]; Liver): 0; HepSE_cholelithiasis (Hepatotoxicity [13]; Liver): 0; HepSE_liver disease (Hepatotoxicity [14]; Liver): 0
O=P(O)(O)O [PHOSPHORIC ACID] |  |  |  |  |  |  |  |  |  |  |  |  |  |  | HepSE_hepatomegaly (Hepatotoxicity [1]; Liver): 0; HepSE_bilirubinemia (Hepatotoxicity [2]; Liver): 0; HepSE_hepatic failure (Hepatotoxicity [3]; Liver): 0; HepSE_liver fatty (Hepatotoxicity [4]; Liver): 0; HepSE_hepatitis (Hepatotoxicity [5]; Liver): 0; HepSE_Combined Scores (Hepatotoxicity [6]; Liver): 0; HepSE_cirrhosis (Hepatotoxicity [7]; Liver): 0; HepSE_hepatic necrosis (Hepatotoxicity [8]; Liver): 0; HepSE_cholecystitis (Hepatotoxicity [9]; Liver): 0; HepSE_elevated liver function tests (Hepatotoxicity [10]; Liver): 0; HepSE_liver function tests abnormal (Hepatotoxicity [11]; Liver): 0; HepSE_jaundice (Hepatotoxicity [12]; Liver): 0; HepSE_cholelithiasis (Hepatotoxicity [13]; Liver): 0; HepSE_liver disease (Hepatotoxicity [14]; Liver): 0
VERTEPORFIN | 0 | 0 | 0 | 0 | 0 | 1 | 0 | 0 | 0 | 1 | 0 | 0 | 0 | 0 | 
CC[N+](CC)(CCNC(=O)C(=O)NCC[N+](CC)(CC)Cc1ccccc1Cl)Cc1ccccc1Cl [AMBENONIUM] | 0 | 0 | 0 | 0 | 0 | 0 | 0 | 0 | 0 | 0 | 0 | 0 | 0 | 0 | 
CO/N=C(\C(=O)N[C@@H]1C(=O)N2C(C(=O)O)=CCS[C@H]12)c1csc(N)n1 [CEFTIZOXIME] | 0 | 0 | 0 | 0 | 0 | 0 | 0 | 0 | 0 | 0 | 0 | 0 | 0 | 0 | 
CCCCN1C[C@H](O)[C@@H](O)[C@H](O)[C@H]1CO | 0 | 0 | 0 | 0 | 0 | 0 | 0 | 0 | 0 | 0 | 0 | 0 | 0 | 0 | 
